Here are results for 18 compounds from patent publication US9248122B2, “Heteroquinoline-3-carboxamides as KCNQ2/3 modulators” (GRÜNENTHAL GMBH, priority 2012, dated 2016).

The target in one assay is T1, KCNQ2/3 channels (Homo sapiens, UniProt O43525+O43526).
T1 construct: expressed in transfected cells
The assay is described as follows: Fluorescence assay using a voltage sensitive dye (fluorimetry). The format is cell-based. To be noted: CHO-K1 cells expressing KCNQ2/3 channels; for Emax: relative to retigabine = 100%, read-out: Fluorimetry % efficacy (retigabine = 100%). As to the method:
Pharmacological Experiments Method I. Fluorescence Assay Using a Voltage Sensitive Dye
Human CHO—K1 cells expressing KCNQ2/3 channels are cultivated adherently at 37° C., 5% CO2 and 95% humidity in cell culture bottles (e.g. 80 cm^2 TC flasks, Nunc) with DMEM-high glucose (Sigma Aldrich, D7777) including 10% FCS (PAN Biotech, e.g. 3302-P270521) or alternatively MEM Alpha Medium (lx, liquid, Invitrogen, #22571), 10% fetal calf serum (FCS) (Invitrogen, #10270-106, heat-inactivated) and the necessary selection antibiotics.
Before being sown out for the measurements, the cells are washed with a 1×DPBS buffer without Ca^2+/Mg^2+ (e.g. Invitrogen, #14190-094) and detached from the bottom of the culture vessel by means of Accutase (PAA Laboratories, #L11-007) (incubation with Accutase for 15 min at 37° C.). The cell count then present is determined using a CASY™ cell counter (TCC model, Scharfe System) in order subsequently to apply, depending on the density optimization for the individual cell line, 20,000-30,000 cells/well/100 μl of the described nutrient medium to 96-well measuring plates of the Corning™ CeIIBIND™ type (Flat Clear Bottom Black Polystyrene Microplates, #3340). Incubation is then carried out for one hour at room temperature, without gassing or adjusting the humidity, followed by incubation for 24 hours at 37° C., 5% CO2 and 95% humidity.
The voltage-sensitive fluorescent dye from the Membrane Potential Assay Kit (Red™ Bulk format part R8123 for FLIPR, MDS Analytical Technologies™) is prepared by dissolving the contents of a vessel Membrane Potential Assay Kit Red Component A in 200 ml of extracellular buffer (ES buffer, 120 mM NaCl, 1 mM KCl, 10 mM HEPES, 2 mM CaCl2, 2 mM MgCl2, 10 mM glucose; pH 7.4). After removal of the nutrient medium, the cells are washed with 200 μl of ES buffer, then covered with a layer of 100 μl of the dye solution prepared above and incubated for 45 min at room temperature with the exclusion of light.
The fluorescence measurements are carried out with a BMG Labtech FLUOstar™, BMG Labtech NOVOstar™ or BMG Labtech POLARstar™ instrument (525 nm excitation, 560 nm emission, Bottom Read mode). After incubation of the dye, 50 μl of the test substances in the desired concentrations, or 50 μl of ES buffer for control purposes, are introduced into separate cavities of the measuring plate and incubated for 30 min at room temperature while being shielded from light. The fluorescence intensity of the dye is then measured for 5 min and the fluorescence value F1 of each well is thus determined at a given, constant time. 15 μl of a […] KCl solution ([…]) are then added to each well. The change in fluorescence is subsequently measured until all the relevant measured values have been obtained (mainly 5-30 min). At a given time after KCl application, a fluorescence value F2 is determined, in this case at the time of the fluorescence peak.
For calculation, the fluorescence intensity F2 is corrected for the fluorescence intensity F1, and the activity (ΔF/F) of the target compound on the potassium channel is determined as follows:
In order to determine whether a substance has agonistic activity,
A substance has an agonistic activity on the potassium channel if
Calculations of EC50 and IC50 values are carried out with the aid of ‘Prism v4.0’ software (GraphPad Software™)

Assay [1] concerns withdrawal reflex of the rat tail (tail flick). As to the kind of experiment: Low-intensity tail flick test (rat). The format is in vivo. Conditions: dose 10 mg/kg. As to the method:
Method II. Low-Intensity Tail Flick Test (Rat)
In the low-intensity tail flick test, the determination of the antinociceptive effect of the compounds according to the invention towards an acute noxious thermal stimulus is carried out by measuring the withdrawal reflex of the rat tail (tail flick) in response to a radiant heat beam (analgesia meter; model 2011 of the company Rhema Labortechnik, Hofheim, Germany) according to the method described by D'Amour and Smith (J. Pharm. Exp. Ther. 72, 74 79 (1941). To this end, the rats were placed in a plexiglas restrainer, and a low-intensity radiant heat beam (48° C.) was focused onto the dorsal surface of the tail root. The stimulus intensity was adjusted to result in a mean pre-drug control withdrawal latency of about 7 s, thus also allowing a supraspinal modulation of the spinally mediated acute nociceptive reflex. […] Before administration of a compound according to the invention, the animals were pre-tested twice in the course of five minutes and the mean of these measurements was calculated as the pre-test mean. The antinociceptive effect was determined at 20, 40 and 60 min after peroral compound administration. The antinociceptive effect was calculated based on the increase in the tail withdrawal latency according to the following formula and is expressed as percentage of the maximum possible effect (MPE [%]): MPE=[(T1−T0)/(T2−T0)]*100 […]
(Thermal pain tests record how soon the animal reacts.)

In general, EC50 refers to the concentration needed to bring the measured effect to its halfway point.

Turning to `CCSc1nc2cc(C(F)(F)F)cnc2c(C)c1C(=O)NCc1cccc(F)c1` [Example 1, 2-Ethylsulfanyl-N-[(3-fluorophenyl)-methyl]-4-methyl-7-(trifluoromethyl)-[1,5]naphthyridine-3-carboxylic acid amide], on KCNQ2/3 channels, the midpoint of the response, the EC50, lay at 0.084 µM and the Emax came out at 156%.

In the case of `CCSc1nc2cnccc2c(C)c1C(=O)NCc1cccc(F)c1` [Example 2, 2-Ethylsulfanyl-N-[(3-fluorophenyl)-methyl]-4-methyl-[1,7]naphthyridine-3-carboxylic acid amide], on KCNQ2/3 channels, a half-maximal response (EC50) required 2.19 µM and the Emax turned out to be 62%.

`CCSc1nc2ccncc2c(C)c1C(=O)NCc1ccc(F)cc1` [Example 3, 2-Ethylsulfanyl-N-[(4-fluorophenyl)-methyl]-4-methyl-[1,6]naphthyridine-3-carboxylic acid amide]: the Emax at KCNQ2/3 channels was found to be 34%.

Turning to `CCSc1nc2sccc2c(C)c1C(=O)NCc1cccc(F)c1` [Example 4, 6-Ethylsulfanyl-N-[(3-fluorophenyl)-methyl]-4-methyl-thieno[2,3-b]pyridine-5-carboxylic acid amide], the Emax on KCNQ2/3 channels was 31%.

Regarding `CCOc1nc2cc(C(F)(F)F)sc2c(C)c1C(=O)NCc1cccc(F)c1` [Example 5, 5-Ethoxy-N-[(3-fluorophenyl)-methyl]-7-methyl-2-(trifluoromethyl)-thieno[3,2-b]pyridine-6-carboxylic acid amide], on KCNQ2/3 channels, the EC50 turned out to be 0.051 µM and the Emax came out at 121%.

In the case of `CCSc1nc2nc(C(F)(F)F)ccc2c(C)c1C(=O)NCc1cccc(F)c1` [Example 6, 2-Ethylsulfanyl-N-[(3-fluorophenyl)-methyl]-4-methyl-7-(trifluoromethyl)-[1,8]naphthyridine-3-carboxylic acid amide], on KCNQ2/3 channels, the EC50 amounted to 0.683 µM and the Emax stood at 152%.

In the case of `CCSc1nc2nc(C(F)(F)F)ccc2c(C)c1C(=O)NCc1ccc(F)cc1` [Example 7, 2-Ethylsulfanyl-N-[(4-fluorophenyl)-methyl]-4-methyl-7-(trifluoromethyl)-[1,8]naphthyridine-3-carboxylic acid amide], on KCNQ2/3 channels, the EC50 came to 0.412 µM and the Emax came to 132%. In addition, the “Low intensity tail flick, rat, peroral, ED50 or MPE (dose) [mg/kg]” value in assay [1] is listed as 16 (10) %.

For the compound `CCSc1nc2cccnc2c(C)c1C(=O)NCc1cccc(F)c1` [Example 8, 2-Ethylsulfanyl-N-[(3-fluorophenyl)-methyl]-4-methyl-[1,5]naphthyridine-3-carboxylic acid amide], on KCNQ2/3 channels, the Emax is 9%.

For the compound `CCSc1nc2cccnc2c(C)c1C(=O)NCc1ccc(F)cc1` [Example 9, 2-Ethylsulfanyl-N-[(4-fluorophenyl)-methyl]-4-methyl-[1,5]naphthyridine-3-carboxylic acid amide], the Emax at KCNQ2/3 channels was 6%.

In the case of `CCSc1nc2cc(C(F)(F)F)cnc2c(C)c1C(=O)NCc1ccc(F)cc1` [Example 10, 2-Ethylsulfanyl-N-[(4-fluorophenyl)-methyl]-4-methyl-7-(trifluoromethyl)-[1,5]naphthyridine-3-carboxylic acid amide], at KCNQ2/3 channels, the concentration for a half-maximal effect (EC50) is 0.101 µM and the Emax was found to be 148%.

For `CCSc1nc2cc(C(F)(F)F)ncc2c(C)c1C(=O)NCc1cccc(F)c1` [Example 11, 2-Ethylsulfanyl-N-[(3-fluorophenyl)-methyl]-4-methyl-7-(trifluoromethyl)-[1,6]naphthyridine-3-carboxylic acid amide], on KCNQ2/3 channels, the EC50 amounted to 0.201 µM and the Emax stood at 101%.

With `CCSc1nc2cc(C(F)(F)F)ncc2c(C)c1C(=O)NCc1ccc(F)cc1` [Example 12, 2-Ethylsulfanyl-N-[(4-fluorophenyl)-methyl]-4-methyl-7-(trifluoromethyl)-[1,6]naphthyridine-3-carboxylic acid amide], at KCNQ2/3 channels, the midpoint of the response, the EC50, lay at 0.301 µM and the Emax is 97%.

In the case of `CCSc1nc2ccncc2c(C)c1C(=O)NCc1cccc(F)c1` [Example 13, 2-Ethylsulfanyl-N-[(3-fluorophenyl)-methyl]-4-methyl-[1,6]naphthyridine-3-carboxylic acid amide], the Emax on KCNQ2/3 channels stood at 32%.

As to `CCSc1nc2ccsc2c(C)c1C(=O)NCc1cccc(F)c1` [Example 14, 5-Ethylsulfanyl-N-[(3-fluorophenyl)-methyl]-7-methyl-thieno[3,2-b]pyridine-6-carboxylic acid amide], on KCNQ2/3 channels, a half-maximal effect (EC50) was put at 0.65 µM and the Emax is -39%.

`CCSc1nc2cnccc2c(C)c1C(=O)NCc1ccc(F)cc1` [Example 15, 2-Ethylsulfanyl-N-[(4-fluorophenyl)-methyl]-4-methyl-[1,7]naphthyridine-3-carboxylic acid amide]: the Emax on KCNQ2/3 channels is 34%.

For `CCSc1nc2ncccc2c(C)c1C(=O)NCc1ccc(F)cc1` [Example 16, 2-Ethylsulfanyl-N-[(4-fluorophenyl)-methyl]-4-methyl-[1,8]naphthyridine-3-carboxylic acid amide], the Emax on KCNQ2/3 channels is 10%.

For the compound `CCSc1nc2ncccc2c(C)c1C(=O)NCc1cccc(F)c1` [Example 17, 2-Ethylsulfanyl-N-[(3-fluorophenyl)-methyl]-4-methyl-[1,8]naphthyridine-3-carboxylic acid amide], the Emax on KCNQ2/3 channels came out at 10%.

Take `CCOc1nc2sc(C(F)(F)F)cc2c(C)c1C(=O)NCc1cccc(F)c1` [Example 18, 6-Ethoxy-N-[(3-fluorophenyl)-methyl]-4-methyl-2-(trifluoromethyl)-thieno[2,3-b]pyridine-5-carboxylic acid amide]: on KCNQ2/3 channels, the EC50 amounted to 0.063 µM and the Emax was 112%.
